Measurements taken from US20250011307A1, “CRYSTALLINE FORMS OF BIARYL YAP/TAZ-TEAD PROTEIN-PROTEIN INTERACTION INHIBITORS” (Novartis AG, priority 2021, published 2025).
Counter-ions that a name gives are not always drawn.

What was measured:
Type in all cases: physicochemical
[1] = Excipient compatibility stress test (HPLC degradation products, color); set-up: key to CL color: A: No change; B: Slight discoloration; C: Medium discoloration; D: Strong discoloration; settings: Compound B forms
[2] = Hygroscopicity (loss on drying by TGA and XRPD, as is and after storage at 92% / 80% RH); settings: for Loss on drying by TGA: Compound B forms, TGA temperature per cell: free form @233° C., succinate @205° C., L-malate @200° C., L-lactate @200° C.; for XRPD / Loss on drying by TGA [%]: Compound A forms; for Loss on drying by TGA [%]: TGA temperature per cell: Modification A 110° C., amorphous 119° C., 4-hydroxybenzoate 200° C.
[3] = Solid state bulk stability stress test (HPLC degradation products, color, XRPD); set-up: key to CL color: A: No change; B: Slight discoloration; C: Medium discoloration; D: Strong discoloration
[4] = Solubility after equilibration at 25° C. for 24 h, with final pH and XRPD of solid residues
[5] = Xenon light stress test of bulk (HPLC degradation products, color, XRPD); set-up: key to CL color: A: No change; B: Slight discoloration; C: Medium discoloration; D: Strong discoloration; settings: Xenon light (1200 kLuxh, 25° C.)
Procedure: X-ray powder diffraction (XRPD) patterns were obtained using a Bruker Advance D8 in reflection geometry. Powders were analyzed using a zero background Si flat sample holder. The radiation used was Cu Kα (A=1.5418 Å). Patterns were measured between 2° and 40° 2theta. • Sample amount: 5-10 mg • Sample holder: zero background Si flat sample holder
X-ray powder diffraction (XRPD) patterns were obtained using a Bruker Advance D8 in reflection geometry. Powders were analyzed using a zero background Si flat sample holder. The radiation was Cu Kα (λ=1.5418 Å). Patterns were measured between 2° and 40° 2theta. • Sample amount: 5-10 mg • Sample holder: zero background Si flat sample holder

[6] = 2 weeks 50° C./75% RH, 1% in HGC powder
[7] = 2 weeks 50° C./75% RH, 1% in HPMC powder
[8] = 2 weeks 50° C./closed, 1% in HGC powder
[9] = 2 weeks 50° C./closed, 1% in HPMC powder
[10] = Compound B forms, 2 weeks 50° C./75% RH
[11] = Compound B forms, 2 weeks 80° C./11% RH
[12] = Compound B forms, 2 weeks 80° C./75% RH
[13] = Compound B forms, FaSSIF V2 pH 6.5
[14] = Compound B forms, FeSSIF V2 pH 5.8
[15] = Compound B forms, pH 3.0, 50 mM citrate buffer
[16] = Compound B forms, pH 4.7, 50 mM acetate buffer
[17] = Compound B forms, pH 6.8, 50 mM phosphate buffer
[18] = Compound B forms, clear quartz vial
[19] = Compound A forms, 2 weeks 50° C./75% RH
[20] = Compound A forms, 2 weeks 80° C., 11% RH
[21] = Compound A forms, 2 weeks 80° C./75% RH

## CNC[C@]1(c2ccccc2)Oc2cc(F)c(Cl)c(-c3c(C(N)=O)ccc(OC)c3F)c2[C@@H]1C [Compound B Free form, amorphous, 2-((2S,3S,4S)-5-Chloro-6-fluoro-3-methyl-2-((methylamino)methyl)-2-phenyl-2,3-dihydrobenzofuran-4-yl)-3-fluoro-4-methoxybenzamide]
[1]; [6]
  CL color: A
  DP[%] degradation products: 2.50%
[1]; [7]
  CL color: A
  DP[%] degradation products: 4.33%
[1]; [8]
  CL color: A
  DP[%] degradation products: 1.87%
[1]; [9]
  CL color: A
  DP[%] degradation products: 2.02%
[2]; After 1 day at 92% RH
  Loss on drying by TGA: 2.14%@233 °C
[2]; Hygroscopicity, As is
  Loss on drying by TGA: 1.30%@233 °C
[3]; [10]
  Bulk (XRPD): gel-like
  CL color: A
  DP[%] degradation products, Bulk (HPLC): 4.84%
[3]; [11]
  Bulk (XRPD): gel-like
  CL color: C
  DP[%] degradation products, Bulk (HPLC): 13.00%
[3]; [12]
  Bulk (XRPD): gel-like
  CL color: C
  DP[%] degradation products, Bulk (HPLC): 14.88%
[4]; Compound B forms, Blank FaSSIF
  final pH: [7.36]
[4]; Compound B forms, Blank FaSSIF, target concentration 2 mg/mL
  Sol. (solubility): 1.49 mg/mL
[4]; [13]
  final pH: [7.19]
[4]; Compound B forms, FaSSIF V2 pH 6.5, target concentration 2 mg/mL
  Sol. (solubility): 1.15 mg/mL
[4]; [14]
  final pH: [6.01]
[4]; Compound B forms, FeSSIF V2 pH 5.8, target concentration 2 mg/mL
  Sol. (solubility): >2 mg/mL
[4]; Compound B forms, SGF pH 2.0
  final pH: [2.22]
[4]; Compound B forms, SGF pH 2.0, target concentration 2 mg/mL
  Sol. (solubility): >2 mg/mL
[4]; Compound B forms, Water
  final pH: [8.78]
[4]; Compound B forms, Water, target concentration 2 mg/mL
  Sol. (solubility): 0.07 mg/mL
[4]; Compound B forms, pH 1.2, 100 mM HCl
  final pH: [1.16]
[4]; Compound B forms, pH 1.2, 100 mM HCl, target concentration 2 mg/mL
  Sol. (solubility): >2 mg/mL
[4]; [15]
  final pH: [3.08]
[4]; Compound B forms, pH 3.0, 50 mM citrate buffer, target concentration 2 mg/mL
  Sol. (solubility): >2 mg/mL
[4]; [16]
  final pH: [4.84]
[4]; Compound B forms, pH 4.7, 50 mM acetate buffer, target concentration 2 mg/mL
  Sol. (solubility): >2 mg/mL
[4]; [17]
  final pH: [6.90]
[4]; Compound B forms, pH 6.8, 50 mM phosphate buffer with 50 mM Na taurocholate
  final pH: [6.72]
[4]; Compound B forms, pH 6.8, 50 mM phosphate buffer with 50 mM Na taurocholate, target concentration 2 mg/mL
  Sol. (solubility): >2 mg/mL
[4]; Compound B forms, pH 6.8, 50 mM phosphate buffer, target concentration 2 mg/mL
  Sol. (solubility): >2 mg/mL
[5]; Compound B forms, amber vial
  Bulk amber vial (XRPD): No change
  CL color: A
  DP[%] degradation products, Bulk amber vial (HPLC): 0.19%
[5]; [18]
  Bulk clear quartz vial (XRPD): No change
  CL color: C
  DP[%] degradation products, Bulk clear quartz vial (HPLC): 2.74%

## CNC[C@]1(c2ccccc2)Oc2cc(F)c(Cl)c(-c3c(C(N)=O)ccc(OC)c3F)c2[C@@H]1C [Compound B L-malate salt, 2-((2S,3S,4S)-5-Chloro-6-fluoro-3-methyl-2-((methylamino)methyl)-2-phenyl-2,3-dihydrobenzofuran-4-yl)-3-fluoro-4-methoxybenzamide]
[1]; [6]
  DP[%] degradation products: 1.32%
[1]; [7]
  DP[%] degradation products: 2.65%
[1]; [8]
  DP[%] degradation products: 0.24%
[1]; [9]
  DP[%] degradation products: 0.36%
[2]; After 1 day at 92% RH
  Loss on drying by TGA: 0.83%@200 °C
[2]; Hygroscopicity, As is
  Loss on drying by TGA: 0.81%@200 °C
[3]; [11]
  DP[%] degradation products, Bulk (HPLC): 0.46%
[3]; [12]
  DP[%] degradation products, Bulk (HPLC): 2.84%
[4]; Compound B forms, Blank FaSSIF
  final pH: [6.04]
[4]; [13]
  final pH: [5.95]
[4]; [14]
  final pH: [5.74]
[4]; Compound B forms, SGF pH 2.0
  final pH: [2.17]
[4]; Compound B forms, Water
  final pH: [4.34]
[4]; [15]
  final pH: [3.04]
[4]; [16]
  final pH: [4.62]
[4]; [17]
  final pH: [6.59]
[5]; Compound B forms, amber vial
  DP[%] degradation products, Bulk amber vial (HPLC): 0.16%
[5]; [18]
  DP[%] degradation products, Bulk clear quartz vial (HPLC): 1.53%

## CNC(=O)c1cnc(OCCO)c(F)c1-c1c(Cl)c(F)cc2c1C[C@](c1ccccc1)([C@@H]1CCCN1)O2 [Compound A Free form amorphous, 4-((2S,4S)-5-Chloro-6-fluoro-2-phenyl-2-((S)-pyrrolidin-2-yl)-2,3-dihydrobenzofuran-4-yl)-5-fluoro-6-(2-hydroxyethoxy)-N-methylnicotinamide]
[2]; After 1 day at 80% RH
  XRPD: No change
  Loss on drying by TGA [%]: 2.0% (119° C.)
[2]; After 1 day at 92% RH
  XRPD: No change
  Loss on drying by TGA [%]: 2.5% (119° C.)
[2]; Hygroscopicity, before RH storage
  Loss on drying by TGA [%]: 1.1% (119° C.)
[3]; [19]
  Bulk (XRPD): No change
  CL color: A
  DP[%] degradation products, Bulk (HPLC): 2.1%
[3]; [20]
  Bulk (XRPD): No change
  CL color: A
  DP[%] degradation products, Bulk (HPLC): 5.5%
[3]; [21]
  Bulk (XRPD): gel
  DP[%] degradation products, Bulk (HPLC): 15.3%
[4]; Compound A forms, FaSSIF V2 pH 6.5
  final pH: (7.98)
[4]; Compound A forms, FaSSIF V2 pH 6.5, target concentration 20 mg/10 mL
  Sol. (solubility): >2, mg/mL
[4]; Compound A forms, FeSSIF V2 pH 5.8
  final pH: (5.93)
[4]; Compound A forms, FeSSIF V2 pH 5.8, target concentration 20 mg/10 mL
  Sol. (solubility): >2 mg/mL
[4]; Compound A forms, SGF pH 2.0
  final pH: (2.37)
[4]; Compound A forms, SGF pH 2.0, target concentration 20 mg/10 mL
  Sol. (solubility): >2, mg/mL
[4]; Compound A forms, Water
  final pH: (9.26)
[4]; Compound A forms, Water, target concentration 20 mg/10 mL
  Sol. (solubility): 0.28, mg/mL
[4]; Compound A forms, pH 1.2, 100 mM HCl
  final pH: (1.19)
[4]; Compound A forms, pH 1.2, 100 mM HCl, target concentration 20 mg/10 mL
  Sol. (solubility): >2 mg/mL
[4]; Compound A forms, pH 3.0, 50 mM citrate buffer
  final pH: (3.13)
[4]; Compound A forms, pH 3.0, 50 mM citrate buffer, target concentration 20 mg/10 mL
  Sol. (solubility): >2, mg/mL
[4]; Compound A forms, pH 4.7, 50 mM acetate buffer
  final pH: (4.89)
[4]; Compound A forms, pH 4.7, 50 mM acetate buffer, target concentration 20 mg/10 mL
  Sol. (solubility): >2, mg/mL
[4]; Compound A forms, pH 6.8, 50 mM phosphate buffer
  final pH: (6.97)
[4]; Compound A forms, pH 6.8, 50 mM phosphate buffer with 50 mM Na taurocholate
  final pH: (6.87)
[4]; Compound A forms, pH 6.8, 50 mM phosphate buffer with 50 mM Na taurocholate, target concentration 20 mg/10 mL
  Sol. (solubility): >2, mg/mL
[4]; Compound A forms, pH 6.8, 50 mM phosphate buffer, target concentration 20 mg/10 mL
  Sol. (solubility): >2, mg/mL
[5]; Compound A forms, amber vial
  Bulk amber vial (XRPD): No change
  CL color: A
  DP[%] degradation products, Bulk amber vial (HPLC): 1.0%
[5]; Compound A forms, clear vial
  Bulk clear vial (XPRD): No change
  CL color: B
  DP[%] degradation products, Bulk clear vial (HPLC): 7.4%
